pIC50: −log10 of the molar value.
Assays:
Format in all cases: functional, cell-based
[1] = test system: TE-441-T; experiment: cells; conditions: Homo sapiens
Description: SANGER: Inhibition of human TE-441-T cell growth in a cell viability assay.

[2] = test system: LC-1F; experiment: cells; conditions: Homo sapiens;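 further: growth inhibition of human LC-1F cells, read out with a cell viability assay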
Description: SANGER: Inhibition of human LC-1F cell growth in a cell viability assay.

[3] = test system: SIMA; experiment: cells; conditions: Homo sapiens;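 further: growth inhibition of SIMA cells, measured with a cell viability readout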
Description: SANGER: Inhibition of human SIMA cell growth in a cell viability assay.

[4] = test system: ECC4; experiment: cells; conditions: Homo sapiens;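 further: growth inhibition of ECC4 cells, read out with a cell viability assay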
Description: SANGER: Inhibition of human ECC4 cell growth in a cell viability assay.

[5] = test system: EVSA-T; experiment: cells; conditions: Homo sapiens;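 further: growth inhibition of EVSA-T cells, read out with a cell viability assay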
Description: SANGER: Inhibition of human EVSA-T cell growth in a cell viability assay.

[6] = test system: SIG-M5; experiment: cells; conditions: Homo sapiens;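 further: cell viability assay read-out, measuring how strongly growth of cultured human SIG-M5 cells is inhibited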
Description: SANGER: Inhibition of human SIG-M5 cell growth in a cell viability assay.

[7] = test system: PF-382; experiment: cells; conditions: Homo sapiens
Description: SANGER: Inhibition of human PF-382 cell growth in a cell viability assay.

[8] = test system: NCI-H345; experiment: cells; conditions: Homo sapiens;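 further: growth inhibition of NCI-H345 cells measured with a cell viability assay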
Description: SANGER: Inhibition of human NCI-H345 cell growth in a cell viability assay.

[9] = test system: LC4-1; experiment: cells; conditions: Homo sapiens;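 further: growth inhibition of LC4-1 cells, read out with a cell viability assay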
Description: SANGER: Inhibition of human LC4-1 cell growth in a cell viability assay.

[10] = test system: THP-1; experiment: cells; conditions: Homo sapiens;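 further: growth inhibition of THP-1 cells, read out via a cell viability assay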
Description: SANGER: Inhibition of human THP-1 cell growth in a cell viability assay.

[11] = test system: BC-3; experiment: cells; conditions: Homo sapiens;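 further: cell viability assay measuring growth inhibition of human BC-3 cells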
Description: SANGER: Inhibition of human BC-3 cell growth in a cell viability assay.

[12] = test system: IM-9; experiment: SANGER: Inhibition of human IM-9 cell growth in a cell viability assay.
[13] = test system: NB12; experiment: cells; conditions: Homo sapiens;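 further: growth inhibition of human NB12 cells, read out by a cell viability assay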
Description: SANGER: Inhibition of human NB12 cell growth in a cell viability assay.

[14] = test system: HCC 2998; experiment: cells; conditions: Homo sapiens;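 further: growth inhibition of human HCC2998 cells, measured with a cell viability read-out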
Description: SANGER: Inhibition of human HCC2998 cell growth in a cell viability assay.

[15] = test system: BL-70; experiment: SANGER: Inhibition of human BL-70 cell growth in a cell viability assay.
[16] = test system: EB-3; experiment: cells; conditions: Homo sapiens;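 further: human EB-3 cells, growth inhibition read out via a cell viability assay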
Description: SANGER: Inhibition of human EB-3 cell growth in a cell viability assay.

[17] = test system: NCI-H524; experiment: cells; conditions: Homo sapiens;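 further: growth inhibition of human NCI-H524 cells, read out through a cell viability assay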
Description: SANGER: Inhibition of human NCI-H524 cell growth in a cell viability assay.

[18] = test system: NCI-H2171; experiment: cells; conditions: Homo sapiens;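 further: growth inhibition of human NCI-H2171 cells, read out by a cell viability assay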
Description: SANGER: Inhibition of human NCI-H2171 cell growth in a cell viability assay.

[19] = test system: NCI-H28; experiment: cells; conditions: Homo sapiens;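 further: growth inhibition of human NCI-H28 cells, read out as cell viability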
Description: SANGER: Inhibition of human NCI-H28 cell growth in a cell viability assay.

[20] = test system: HOP-92; experiment: cells; conditions: Homo sapiens;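 further: cell viability readout, with IC50 reflecting inhibition of HOP-92 cell growth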
Description: SANGER: Inhibition of human HOP-92 cell growth in a cell viability assay.

[21] = test system: HT55; experiment: cells; conditions: Homo sapiens;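 further: cell viability readout measuring growth inhibition of human HT55 cells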
Description: SANGER: Inhibition of human HT55 cell growth in a cell viability assay.

[22] = test system: PANC-08-13; experiment: cells; conditions: Homo sapiens
Description: SANGER: Inhibition of human PANC-08-13 cell growth in a cell viability assay.

[23] = test system: SK-MEL-30; experiment: cells; conditions: Homo sapiens;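 further: growth inhibition of SK-MEL-30 cells, determined with a cell viability assay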
Description: SANGER: Inhibition of human SK-MEL-30 cell growth in a cell viability assay.

[24] = test system: SW1710; experiment: cells; conditions: Homo sapiens;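 further: growth inhibition of SW1710 cells, determined with a cell viability assay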
Description: SANGER: Inhibition of human SW1710 cell growth in a cell viability assay.

[25] = test system: HT-1376; experiment: cells; conditions: Homo sapiens
Description: SANGER: Inhibition of human HT-1376 cell growth in a cell viability assay.

[26] = test system: MDA-MB-231; experiment: cells; conditions: Homo sapiens
Description: SANGER: Inhibition of human MDA-MB-231 cell growth in a cell viability assay.

[27] = test system: UMC-11; experiment: cells; conditions: Homo sapiens;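 further: growth inhibition of UMC-11 cells, read out with a cell viability assay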
Description: SANGER: Inhibition of human UMC-11 cell growth in a cell viability assay.

[28] = test system: UO-31; experiment: cells; conditions: Homo sapiens
Description: SANGER: Inhibition of human U031 cell growth in a cell viability assay.

[29] = test system: C-33-A; experiment: cells; conditions: Homo sapiens;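 further: cell viability assay measuring growth inhibition of C-33-A cells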
Description: SANGER: Inhibition of human C-33-A cell growth in a cell viability assay.

[30] = test system: CWR22R; experiment: cells; conditions: Homo sapiens, 22Rv1;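 further: growth inhibition of 22Rv1 cells, read out with a cell viability assay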
Description: SANGER: Inhibition of human 22RV1 cell growth in a cell viability assay.

[31] = test system: NCI-H1573; experiment: cells; conditions: Homo sapiens;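 further: growth inhibition of NCI-H1573 cells, read out with a cell viability assay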
Description: SANGER: Inhibition of human NCI-H1573 cell growth in a cell viability assay.

[32] = test system: OE19; experiment: cells; conditions: Homo sapiens;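 further: growth inhibition of OE19 cells, measured through a cell viability read-out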
Description: SANGER: Inhibition of human OE19 cell growth in a cell viability assay.

[33] = test system: HSC-3; experiment: cells; conditions: Homo sapiens
Description: SANGER: Inhibition of human HSC-3 cell growth in a cell viability assay.

[34] = test system: 23132-87; experiment: cells; conditions: Homo sapiens
Description: SANGER: Inhibition of human 23132-87 cell growth in a cell viability assay.

[35] = test system: NCI-H661; experiment: cells; conditions: Homo sapiens;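 further: cell viability assay read-out, IC50 being the concentration that inhibits growth of the cells by half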
Description: SANGER: Inhibition of human NCI-H661 cell growth in a cell viability assay.

[36] = test system: CHL-1; experiment: cells; conditions: Homo sapiens;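 further: cell growth inhibition, read out with a cell viability assay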
Description: SANGER: Inhibition of human CHL-1 cell growth in a cell viability assay.

[37] = test system: RD; experiment: cells; conditions: Homo sapiens
Description: SANGER: Inhibition of human RD cell growth in a cell viability assay.

[38] = test system: NCI-H2342; experiment: cells; conditions: Homo sapiens;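 further: growth inhibition of the cancer cell line, determined with a cell viability assay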
Description: SANGER: Inhibition of human NCI-H2342 cell growth in a cell viability assay.

[39] = test system: RPMI-2650; experiment: cells; conditions: Homo sapiens
Description: SANGER: Inhibition of human RPMI-2650 cell growth in a cell viability assay.

[40] = test system: VMRC-RCZ; experiment: cells; conditions: Homo sapiens
Description: SANGER: Inhibition of human VMRC-RCZ cell growth in a cell viability assay.

[41] = test system: HCC70; experiment: cells; conditions: Homo sapiens;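 further: cell viability assay measuring how strongly the compound suppresses proliferation of HCC70 cells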
Description: SANGER: Inhibition of human HCC70 cell growth in a cell viability assay.

[42] = test system: NCI-N87; experiment: cells; conditions: Homo sapiens;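 further: growth inhibition of human NCI-N87 cells, read out with a cell viability assay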
Description: SANGER: Inhibition of human NCI-N87 cell growth in a cell viability assay.

[43] = test system: ME-180; experiment: cells; conditions: Homo sapiens;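 further: cell viability assay measuring growth inhibition of ME-180 cells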
Description: SANGER: Inhibition of human ME-180 cell growth in a cell viability assay.

[44] = test system: NY; experiment: cells; conditions: Homo sapiens
Description: SANGER: Inhibition of human NY cell growth in a cell viability assay.

[45] = test system: CAL-72; experiment: cells; conditions: Homo sapiens;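 further: cell viability assay measuring inhibition of proliferation in the CAL-72 cell line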
Description: SANGER: Inhibition of human CAL-72 cell growth in a cell viability assay.

[46] = test system: SK-MES-1; experiment: cells; conditions: Homo sapiens;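 further: growth inhibition of human SK-MES-1 cells, read out with a cell viability assay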
Description: SANGER: Inhibition of human SK-MES-1 cell growth in a cell viability assay.

[47] = test system: MKN-7; experiment: cells; conditions: Homo sapiens;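 further: growth inhibition of MKN-7 cells, read out with a cell viability assay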
Description: SANGER: Inhibition of human MKN7 cell growth in a cell viability assay.

[48] = test system: Ca-Ski; experiment: cells; conditions: Homo sapiens;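 further: cell viability assay measuring inhibition of Ca-Ski cell growth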
Description: SANGER: Inhibition of human Ca-Ski cell growth in a cell viability assay.

[49] = test system: WM-115; experiment: cells; conditions: Homo sapiens
Description: SANGER: Inhibition of human WM-115 cell growth in a cell viability assay.

[50] = test system: CaR-1; experiment: cells; conditions: Homo sapiens;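 further: growth inhibition of human CaR-1 cancer cells, read out with a cell viability assay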
Description: SANGER: Inhibition of human CaR-1 cell growth in a cell viability assay.

[51] = test system: DoTc2-4510; experiment: cells; conditions: Homo sapiens
[52] = test system: YKG-1; experiment: cells; conditions: Homo sapiens;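 further: cell growth inhibition, read out with a viability assay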
Description: SANGER: Inhibition of human YKG-1 cell growth in a cell viability assay.

[53] = test system: NCI-H1993; experiment: cells; conditions: Homo sapiens;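 further: growth inhibition of the cancer cell line, assessed with a cell viability assay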
Description: SANGER: Inhibition of human NCI-H1993 cell growth in a cell viability assay.

[54] = test system: NCI-H1623; experiment: cells; conditions: Homo sapiens;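 further: cell viability assay used as the read-out for growth inhibition of NCI-H1623 cells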
Description: SANGER: Inhibition of human NCI-H1623 cell growth in a cell viability assay.

[55] = test system: M14; experiment: cells; conditions: Homo sapiens;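 further: growth inhibition of M14 cells, read out with a cell viability assay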
Description: SANGER: Inhibition of human M14 cell growth in a cell viability assay.

[56] = test system: NCI-H2009; experiment: cells; conditions: Homo sapiens;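 further: cell viability assay measuring inhibition of NCI-H2009 cell growth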
Description: SANGER: Inhibition of human NCI-H2009 cell growth in a cell viability assay.

[57] = test system: CP50-MEL-B; experiment: cells; conditions: Homo sapiens;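 further: growth inhibition of the human cell line, measured with a cell viability read-out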
Description: SANGER: Inhibition of human CP50-MEL-B cell growth in a cell viability assay.

[58] = test system: NCI-H2405; experiment: cells; conditions: Homo sapiens;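 further: growth inhibition of the human cell line, read out with a cell viability assay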
Description: SANGER: Inhibition of human NCI-H2405 cell growth in a cell viability assay.

[59] = test system: T98G; experiment: cells; conditions: Homo sapiens;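 further: growth inhibition of T98G cells, read out by a cell viability assay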
Description: SANGER: Inhibition of human T98G cell growth in a cell viability assay.

[60] = test system: SW1990; experiment: cells; conditions: Homo sapiens
Description: SANGER: Inhibition of human SW1990 cell growth in a cell viability assay.

[61] = test system: RVH-421; experiment: cells; conditions: Homo sapiens
Description: SANGER: Inhibition of human RVH-421 cell growth in a cell viability assay.

[62] = test system: DU-145; experiment: cells; conditions: Homo sapiens
Description: SANGER: Inhibition of human DU-145 cell growth in a cell viability assay.

[63] = test system: M059J; experiment: cells; conditions: Homo sapiens;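 further: growth inhibition of M059J cells, read out with a cell viability assay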
Description: SANGER: Inhibition of human M059J cell growth in a cell viability assay.

[64] = test system: PA-1; experiment: cells; conditions: Homo sapiens;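 further: IC50 for suppression of PA-1 cell proliferation, determined with a cell viability read-out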
Description: SANGER: Inhibition of human PA-1 cell growth in a cell viability assay.

`CCn1c(-c2nonc2N)nc2cnc(Oc3cccc(NC(=O)c4ccc(OCCN5CCOCC5)cc4)c3)cc21` [GSK-269962A] was tested, and the pIC50 [1] was < 5.60, the pIC50 [2] was < 5.60 and the pIC50 [3] was < 5.60. For the same molecule, the pIC50 [4] was < 5.60, the pIC50 [5] was < 5.60 and the pIC50 [6] was < 5.60. The pIC50 [7] was < 5.60, the pIC50 [8] was < 5.60 and the pIC50 [9] was < 5.60. The pIC50 [10] was < 5.60, the pIC50 [11] was < 5.60 and the pIC50 [12] was < 5.60. The pIC50 [13] was < 5.60, the pIC50 [14] was < 5.60 and the pIC50 [15] was < 5.60. The pIC50 [16] was < 5.60, the pIC50 [17] was < 5.60 and the pIC50 [18] was 6.02.
`O=c1cc(N2CCOCC2)oc2c(-c3cccc4c3sc3ccccc34)cccc12` was tested, and the pIC50 [19] was < 5.70, the pIC50 [20] was < 5.70 and the pIC50 [21] was < 5.70. For the same molecule, the pIC50 [22] was < 5.70, the pIC50 [23] was < 5.70 and the pIC50 [24] was < 5.70. For the same molecule, the pIC50 [25] was < 5.70, the pIC50 [26] was < 5.70 and the pIC50 [27] was < 5.70. For the same molecule, the pIC50 [28] was < 5.70, the pIC50 [29] was < 5.70 and the pIC50 [30] was < 5.70. The pIC50 [31] was < 5.70, the pIC50 [32] was < 5.70 and the pIC50 [33] was < 5.70. For the same molecule, the pIC50 [34] was < 5.70, the pIC50 [35] was < 5.70 and the pIC50 [36] was 5.92. For the same molecule, the pIC50 [37] was < 5.70, the pIC50 [38] was < 5.70 and the pIC50 [39] was < 5.70. The pIC50 [40] was < 5.70, the pIC50 [41] was < 5.70 and the pIC50 [42] was < 5.70. The pIC50 [43] was < 5.70, the pIC50 [44] was < 5.70 and the pIC50 [45] was < 5.70. The pIC50 [46] was < 5.70, the pIC50 [47] was < 5.70 and the pIC50 [48] was < 5.70. The pIC50 [49] was < 5.70, the pIC50 [50] was < 5.70 and the pIC50 [51] was < 5.70. The pIC50 [52] was < 5.70, the pIC50 [13] was < 5.70 and the pIC50 [53] was < 5.70. For the same molecule, the pIC50 [14] was < 5.70, the pIC50 [54] was < 5.70 and the pIC50 [55] was < 5.70. The pIC50 [56] was < 5.70, the pIC50 [57] was < 5.70 and the pIC50 [58] was < 5.70. For the same molecule, the pIC50 [59] was < 5.70, the pIC50 [60] was < 5.70 and the pIC50 [61] was < 5.70. The pIC50 [62] was < 5.70, the pIC50 [63] was < 5.70 and the pIC50 [64] was 5.80.
In the case of `C[C@]12O[C@H](C[C@]1(O)CO)n1c3ccccc3c3c4c(c5c6ccccc6n2c5c31)CNC4=O` [LESTAURTINIB], the pIC50 [19] was 6.08, the pIC50 [20] was 6.04 and the pIC50 [21] was < 5.70. For the same molecule, the pIC50 [22] was < 5.70, the pIC50 [23] was 6.29 and the pIC50 [24] was 6.89. For the same molecule, the pIC50 [25] was < 5.70, the pIC50 [26] was 6.23 and the pIC50 [27] was 5.95. The pIC50 [28] was < 5.70, the pIC50 [29] was < 5.70 and the pIC50 [30] was 5.85. The pIC50 [31] was 6.16, the pIC50 [32] was < 5.70 and the pIC50 [33] was 7.33. The pIC50 [34] was 6.08, the pIC50 [35] was < 5.70 and the pIC50 [36] was 7.87. The pIC50 [37] was < 5.70, the pIC50 [38] was < 5.70 and the pIC50 [39] was 5.93. For the same molecule, the pIC50 [40] was 7.08, the pIC50 [41] was < 5.70 and the pIC50 [42] was < 5.70. The pIC50 [43] was 6.13, the pIC50 [44] was < 5.70 and the pIC50 [45] was < 5.70. For the same molecule, the pIC50 [46] was 7.33, the pIC50 [47] was 5.74 and the pIC50 [48] was < 5.70. For the same molecule, the pIC50 [49] was < 5.70, the pIC50 [50] was 6.83 and the pIC50 [51] was < 5.70. For the same molecule, the pIC50 [52] was 6.49, the pIC50 [13] was 5.88 and the pIC50 [53] was < 5.70. It also gave a pIC50 [14] of 6.26, a pIC50 [54] of 5.78 and a pIC50 [55] of 7.30. It also gave a pIC50 [56] of 5.91, a pIC50 [57] of 6.20 and a pIC50 [58] of 5.74. For the same molecule, the pIC50 [59] was 6.48, the pIC50 [60] was 5.86 and the pIC50 [61] was 6.61. The pIC50 [62] was < 5.70, the pIC50 [63] was 6.29 and the pIC50 [64] was 6.85.
`C[C@]1(c2nc3c(C(N)=O)cccc3[nH]2)CCCN1` [VELIPARIB] was tested, and the pIC50 [19] was < 5.30, the pIC50 [20] was < 5.30 and the pIC50 [21] was < 5.30. The pIC50 [22] was < 5.30, the pIC50 [23] was < 5.30 and the pIC50 [24] was < 5.30. The pIC50 [25] was < 5.30, the pIC50 [26] was < 5.30 and the pIC50 [27] was < 5.30. The pIC50 [28] was < 5.30, the pIC50 [29] was < 5.30 and the pIC50 [30] was < 5.30. The pIC50 [31] was < 5.30, the pIC50 [32] was < 5.30 and the pIC50 [33] was < 5.30. For the same molecule, the pIC50 [34] was < 5.30, the pIC50 [35] was < 5.30 and the pIC50 [36] was < 5.30. The pIC50 [37] was < 5.30, the pIC50 [38] was < 5.30 and the pIC50 [39] was < 5.30. For the same molecule, the pIC50 [40] was < 5.30, the pIC50 [41] was < 5.30 and the pIC50 [42] was < 5.30. The pIC50 [43] was < 5.30, the pIC50 [44] was < 5.30 and the pIC50 [45] was < 5.30. For the same molecule, the pIC50 [46] was < 5.30, the pIC50 [47] was < 5.30 and the pIC50 [48] was < 5.30. The pIC50 [49] was < 5.30, the pIC50 [50] was < 5.30 and the pIC50 [51] was < 5.30. The pIC50 [52] was < 5.30, the pIC50 [13] was < 5.30 and the pIC50 [53] was < 5.30. The pIC50 [14] was < 5.30, the pIC50 [54] was < 5.30 and the pIC50 [55] was < 5.30. The pIC50 [56] was < 5.30, the pIC50 [57] was < 5.30 and the pIC50 [58] was < 5.30. The pIC50 [59] was < 5.30, the pIC50 [60] was < 5.30 and the pIC50 [61] was < 5.30. For the same molecule, the pIC50 [62] was < 5.30, the pIC50 [63] was < 5.30 and the pIC50 [64] was < 5.30.

Reference: ChEMBL document CHEMBL1201861, “Genomics of Drug Sensitity in Cancer screening data, Wellcome Trust Sanger Institute”
